The values that follow come from US7759331B2, “Pyridine-containing macroheterococylic compounds as kinase inhibitors” (Janssen Pharmaceutica NV, priority 2006, dated 2010).

Test in all cases: Protein kinase selectivity panel
Common to all, as to assay type: biochemical
Conditions in all cases: 1.0 μM compound, 10 μM ATP

In one assay the target is PAR-1Bα(h) (Homo sapiens, UniProt Q7KZI7). The method, boiled down: (§1)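 Read-out is phosphorylation of the kinase's appropriate peptide/protein substrate, with and without 1.0 μM test compound. Assays used 10 μM ATP.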
PAR-1Bα(h), sequence (Q7KZI7 1-725 isoform Q7KZI7-4): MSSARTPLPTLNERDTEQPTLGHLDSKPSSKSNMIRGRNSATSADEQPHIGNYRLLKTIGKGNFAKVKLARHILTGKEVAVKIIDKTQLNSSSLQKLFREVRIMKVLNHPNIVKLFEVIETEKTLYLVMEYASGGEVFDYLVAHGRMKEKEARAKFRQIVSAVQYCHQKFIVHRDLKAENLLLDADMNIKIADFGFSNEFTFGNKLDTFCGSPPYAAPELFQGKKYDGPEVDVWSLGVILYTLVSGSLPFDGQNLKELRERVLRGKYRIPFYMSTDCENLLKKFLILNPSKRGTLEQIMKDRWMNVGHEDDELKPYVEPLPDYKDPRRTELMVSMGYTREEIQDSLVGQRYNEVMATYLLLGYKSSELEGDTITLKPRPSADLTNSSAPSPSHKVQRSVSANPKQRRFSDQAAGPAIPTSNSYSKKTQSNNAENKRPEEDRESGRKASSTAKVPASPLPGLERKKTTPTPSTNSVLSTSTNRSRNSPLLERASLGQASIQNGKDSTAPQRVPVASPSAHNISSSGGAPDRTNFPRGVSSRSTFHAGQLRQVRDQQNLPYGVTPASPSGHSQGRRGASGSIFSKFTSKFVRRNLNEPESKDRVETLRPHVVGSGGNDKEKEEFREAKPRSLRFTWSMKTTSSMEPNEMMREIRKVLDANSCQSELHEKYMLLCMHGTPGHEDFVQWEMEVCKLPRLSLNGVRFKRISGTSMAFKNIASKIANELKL
A further assay deals with ROCK-II(h) (Homo sapiens, UniProt O75116). The method, boiled down:
as §1

A further assay deals with T1, SGK(h) (Homo sapiens, UniProt O00141, S422D).
T1 sequence (O00141 60-431 S422D limits assumed): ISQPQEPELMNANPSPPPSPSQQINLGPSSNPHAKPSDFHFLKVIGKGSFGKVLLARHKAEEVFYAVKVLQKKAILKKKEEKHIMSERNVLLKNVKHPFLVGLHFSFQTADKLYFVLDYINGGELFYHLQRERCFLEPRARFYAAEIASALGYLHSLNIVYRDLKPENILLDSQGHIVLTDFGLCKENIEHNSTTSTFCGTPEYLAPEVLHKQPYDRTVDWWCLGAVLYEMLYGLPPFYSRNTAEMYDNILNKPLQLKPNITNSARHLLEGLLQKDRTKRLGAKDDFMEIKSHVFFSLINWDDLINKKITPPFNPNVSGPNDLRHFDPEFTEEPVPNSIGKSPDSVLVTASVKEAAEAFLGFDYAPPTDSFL
The method, boiled down: as §1

The next assay concerns the target PKCα(h) (Homo sapiens, UniProt P17252). The method, boiled down: as §1
The next assay deals with CDK3/cyclinE(h) (Homo sapiens, UniProt Q00526). The gist of the method: as §1
CDK3/cyclinE(h), sequence (Q00526 whole entry): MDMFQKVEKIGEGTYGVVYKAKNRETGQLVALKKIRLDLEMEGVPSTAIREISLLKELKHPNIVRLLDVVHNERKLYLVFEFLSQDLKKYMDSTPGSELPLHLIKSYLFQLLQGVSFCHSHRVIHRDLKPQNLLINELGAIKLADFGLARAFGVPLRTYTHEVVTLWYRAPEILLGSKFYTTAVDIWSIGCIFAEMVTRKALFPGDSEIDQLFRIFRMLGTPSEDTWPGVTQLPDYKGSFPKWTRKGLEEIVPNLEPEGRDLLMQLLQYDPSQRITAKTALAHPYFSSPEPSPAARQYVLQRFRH
CDK3/cyclinE(h), sequence (P24864 whole entry partner): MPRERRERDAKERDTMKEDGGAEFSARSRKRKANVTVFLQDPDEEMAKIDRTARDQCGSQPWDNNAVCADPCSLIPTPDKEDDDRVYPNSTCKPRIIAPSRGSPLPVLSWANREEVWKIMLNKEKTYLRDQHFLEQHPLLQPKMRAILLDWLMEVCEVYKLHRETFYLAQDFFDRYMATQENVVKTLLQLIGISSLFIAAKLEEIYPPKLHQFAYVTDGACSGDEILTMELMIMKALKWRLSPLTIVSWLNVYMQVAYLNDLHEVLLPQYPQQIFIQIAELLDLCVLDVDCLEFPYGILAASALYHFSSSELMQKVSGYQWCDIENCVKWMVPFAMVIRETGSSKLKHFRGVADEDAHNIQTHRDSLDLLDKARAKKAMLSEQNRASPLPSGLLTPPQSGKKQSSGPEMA
Another assay deals with T2, PKCε(h) (Homo sapiens, UniProt Q02156).
T2 sequence (Q02156 1-737): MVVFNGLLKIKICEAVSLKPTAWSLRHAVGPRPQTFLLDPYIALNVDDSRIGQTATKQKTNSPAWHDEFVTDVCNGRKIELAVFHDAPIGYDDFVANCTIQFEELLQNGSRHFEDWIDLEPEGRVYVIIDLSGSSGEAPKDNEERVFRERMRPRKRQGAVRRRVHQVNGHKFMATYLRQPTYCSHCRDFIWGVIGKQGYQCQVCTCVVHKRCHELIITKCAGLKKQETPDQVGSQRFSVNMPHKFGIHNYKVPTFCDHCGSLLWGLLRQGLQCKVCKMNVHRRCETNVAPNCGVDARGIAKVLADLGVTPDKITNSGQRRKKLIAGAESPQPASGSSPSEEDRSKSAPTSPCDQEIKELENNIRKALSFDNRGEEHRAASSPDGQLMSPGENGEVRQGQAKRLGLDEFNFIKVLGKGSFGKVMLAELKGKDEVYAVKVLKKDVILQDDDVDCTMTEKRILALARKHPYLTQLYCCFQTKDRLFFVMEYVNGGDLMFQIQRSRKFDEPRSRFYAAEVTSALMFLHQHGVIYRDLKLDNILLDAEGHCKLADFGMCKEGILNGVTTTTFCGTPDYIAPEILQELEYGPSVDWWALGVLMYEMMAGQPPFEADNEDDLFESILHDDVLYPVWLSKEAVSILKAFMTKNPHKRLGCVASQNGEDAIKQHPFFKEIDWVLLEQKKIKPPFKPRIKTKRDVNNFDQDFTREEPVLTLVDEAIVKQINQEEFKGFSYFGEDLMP
The gist of the method:
as §1

A further assay addresses T3, PKCι(h) (Homo sapiens, UniProt P41743).
T3 sequence (P41743 1-596): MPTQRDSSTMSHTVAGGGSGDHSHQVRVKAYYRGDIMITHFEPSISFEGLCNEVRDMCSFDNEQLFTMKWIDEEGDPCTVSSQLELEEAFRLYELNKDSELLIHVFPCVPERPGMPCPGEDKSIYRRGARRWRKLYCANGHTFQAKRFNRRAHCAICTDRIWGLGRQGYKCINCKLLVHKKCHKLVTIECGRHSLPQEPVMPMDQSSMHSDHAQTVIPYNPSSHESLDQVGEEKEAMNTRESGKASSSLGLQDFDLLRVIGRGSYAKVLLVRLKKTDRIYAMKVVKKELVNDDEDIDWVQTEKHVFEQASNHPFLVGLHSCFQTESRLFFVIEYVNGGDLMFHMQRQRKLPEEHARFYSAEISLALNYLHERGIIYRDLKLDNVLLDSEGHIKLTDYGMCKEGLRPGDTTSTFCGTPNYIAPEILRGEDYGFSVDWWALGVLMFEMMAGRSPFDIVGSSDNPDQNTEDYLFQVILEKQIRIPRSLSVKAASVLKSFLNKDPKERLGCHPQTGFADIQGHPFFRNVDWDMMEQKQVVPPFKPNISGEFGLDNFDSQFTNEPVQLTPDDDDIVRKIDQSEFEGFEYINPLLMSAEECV
The method, boiled down:
as §1

For another assay, the target named is FGFR3(h) (Homo sapiens, UniProt P22607). The method, boiled down: as §1
FGFR3(h), sequence (P22607 23-806): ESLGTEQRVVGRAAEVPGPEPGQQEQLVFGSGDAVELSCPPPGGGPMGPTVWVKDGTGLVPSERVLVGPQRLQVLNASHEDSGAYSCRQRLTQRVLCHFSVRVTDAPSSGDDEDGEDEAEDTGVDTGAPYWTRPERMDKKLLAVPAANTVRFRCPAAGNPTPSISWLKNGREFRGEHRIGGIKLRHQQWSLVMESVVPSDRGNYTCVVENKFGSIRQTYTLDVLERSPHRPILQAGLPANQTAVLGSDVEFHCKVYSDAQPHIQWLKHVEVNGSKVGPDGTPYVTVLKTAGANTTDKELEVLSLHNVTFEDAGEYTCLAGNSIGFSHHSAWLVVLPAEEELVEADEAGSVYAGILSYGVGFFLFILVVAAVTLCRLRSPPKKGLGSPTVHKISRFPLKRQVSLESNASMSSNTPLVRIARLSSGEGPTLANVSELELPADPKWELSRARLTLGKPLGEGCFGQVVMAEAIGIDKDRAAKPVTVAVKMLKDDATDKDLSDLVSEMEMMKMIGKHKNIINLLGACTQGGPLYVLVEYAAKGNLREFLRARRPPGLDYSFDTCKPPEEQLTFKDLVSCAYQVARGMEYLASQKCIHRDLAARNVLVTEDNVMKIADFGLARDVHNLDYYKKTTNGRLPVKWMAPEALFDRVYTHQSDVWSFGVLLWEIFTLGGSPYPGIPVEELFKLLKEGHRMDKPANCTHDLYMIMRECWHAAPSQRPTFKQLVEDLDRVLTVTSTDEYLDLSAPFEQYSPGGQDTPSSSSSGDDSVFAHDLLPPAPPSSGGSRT
The target of another assay is BTK(h) (Homo sapiens, UniProt Q06187). The gist of the method: as §1
BTK(h), sequence (Q06187 whole entry): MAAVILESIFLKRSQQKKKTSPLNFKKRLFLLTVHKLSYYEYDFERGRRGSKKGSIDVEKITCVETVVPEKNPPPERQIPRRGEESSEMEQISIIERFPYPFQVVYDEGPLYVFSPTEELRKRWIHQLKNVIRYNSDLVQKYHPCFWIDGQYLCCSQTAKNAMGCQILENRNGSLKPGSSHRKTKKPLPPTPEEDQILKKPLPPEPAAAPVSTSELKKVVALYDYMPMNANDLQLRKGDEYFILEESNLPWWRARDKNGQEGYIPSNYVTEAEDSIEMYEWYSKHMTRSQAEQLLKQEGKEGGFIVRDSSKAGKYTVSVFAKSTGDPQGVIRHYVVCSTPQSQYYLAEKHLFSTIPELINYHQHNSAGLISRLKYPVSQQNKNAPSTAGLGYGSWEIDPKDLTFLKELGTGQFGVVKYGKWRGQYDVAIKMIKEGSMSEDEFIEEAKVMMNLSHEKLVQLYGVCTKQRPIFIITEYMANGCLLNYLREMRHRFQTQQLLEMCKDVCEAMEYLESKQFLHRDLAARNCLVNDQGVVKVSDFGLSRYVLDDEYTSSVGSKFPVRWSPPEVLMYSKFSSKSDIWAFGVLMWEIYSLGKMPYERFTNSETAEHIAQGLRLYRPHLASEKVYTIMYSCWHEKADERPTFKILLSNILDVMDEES
The next assay deals with T4, PRAK(h) (Homo sapiens, UniProt Q8IW41).
T4 sequence (Q8IW41 1-473): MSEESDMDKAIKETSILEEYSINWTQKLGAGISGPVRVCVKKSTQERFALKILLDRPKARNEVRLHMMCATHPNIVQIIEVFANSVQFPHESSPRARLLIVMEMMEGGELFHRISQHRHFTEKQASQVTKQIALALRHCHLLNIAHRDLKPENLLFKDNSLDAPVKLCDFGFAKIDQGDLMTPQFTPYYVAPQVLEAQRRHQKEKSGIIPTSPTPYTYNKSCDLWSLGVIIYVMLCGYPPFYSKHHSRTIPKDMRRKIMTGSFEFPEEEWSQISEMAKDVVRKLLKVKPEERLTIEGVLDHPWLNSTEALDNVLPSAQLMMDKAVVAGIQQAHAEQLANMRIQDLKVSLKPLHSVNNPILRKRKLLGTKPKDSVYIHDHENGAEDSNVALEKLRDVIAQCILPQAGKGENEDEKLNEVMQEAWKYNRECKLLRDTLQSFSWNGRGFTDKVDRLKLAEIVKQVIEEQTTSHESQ
The gist of the method: as §1

ROCK-II(h), sequence (O75116 whole entry): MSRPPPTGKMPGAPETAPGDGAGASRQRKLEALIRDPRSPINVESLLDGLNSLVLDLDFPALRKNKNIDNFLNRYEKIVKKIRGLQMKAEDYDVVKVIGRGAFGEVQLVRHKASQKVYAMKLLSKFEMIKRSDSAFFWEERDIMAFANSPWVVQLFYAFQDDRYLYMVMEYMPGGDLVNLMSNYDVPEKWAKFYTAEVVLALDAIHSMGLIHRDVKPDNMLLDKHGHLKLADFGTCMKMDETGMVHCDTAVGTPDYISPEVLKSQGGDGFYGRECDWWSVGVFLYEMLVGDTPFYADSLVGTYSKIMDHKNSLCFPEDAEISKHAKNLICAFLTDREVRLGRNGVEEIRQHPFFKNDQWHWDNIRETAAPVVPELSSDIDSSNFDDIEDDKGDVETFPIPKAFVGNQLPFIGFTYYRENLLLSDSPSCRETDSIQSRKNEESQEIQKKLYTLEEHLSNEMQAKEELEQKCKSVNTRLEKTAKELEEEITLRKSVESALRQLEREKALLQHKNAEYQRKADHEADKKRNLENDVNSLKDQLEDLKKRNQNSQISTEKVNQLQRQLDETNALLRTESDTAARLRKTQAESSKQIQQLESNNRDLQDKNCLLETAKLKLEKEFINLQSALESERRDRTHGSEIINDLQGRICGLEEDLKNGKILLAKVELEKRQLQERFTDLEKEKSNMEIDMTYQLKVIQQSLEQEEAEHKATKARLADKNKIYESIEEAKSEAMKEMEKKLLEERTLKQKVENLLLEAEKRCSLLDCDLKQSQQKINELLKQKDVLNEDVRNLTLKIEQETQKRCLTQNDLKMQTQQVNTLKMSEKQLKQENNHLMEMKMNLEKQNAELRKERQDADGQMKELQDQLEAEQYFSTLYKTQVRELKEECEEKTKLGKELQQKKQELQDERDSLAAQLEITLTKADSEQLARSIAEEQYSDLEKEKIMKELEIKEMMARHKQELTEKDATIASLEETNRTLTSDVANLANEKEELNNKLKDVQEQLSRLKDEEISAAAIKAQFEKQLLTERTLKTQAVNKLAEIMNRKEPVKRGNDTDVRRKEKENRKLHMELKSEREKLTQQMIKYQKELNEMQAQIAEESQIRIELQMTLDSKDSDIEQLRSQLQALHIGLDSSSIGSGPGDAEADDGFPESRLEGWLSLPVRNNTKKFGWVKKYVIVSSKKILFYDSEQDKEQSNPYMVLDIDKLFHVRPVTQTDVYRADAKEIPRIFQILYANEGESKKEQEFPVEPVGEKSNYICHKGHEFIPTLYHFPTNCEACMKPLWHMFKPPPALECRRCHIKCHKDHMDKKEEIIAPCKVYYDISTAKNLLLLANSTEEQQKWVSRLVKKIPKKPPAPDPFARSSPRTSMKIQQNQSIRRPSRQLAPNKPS

For `O=C1NC(=O)C2=C1c1cn(c3ccccc13)CCCc1ccc(c(N3CCCC3)n1)CCCn1cc2c2ccccc21` [Cpd 7, 31-pyrrolidin-1-yl-5,15,25,30-tetraazaheptacyclo[27.2.2.1^5,12.1^18,25.0^6,11.0^13,17.0^19,24]pentatriaconta-1(31),6,8,10,12(35),13(17),18(34),19,21,23,29,32-dodecaene-14,16-dione], the “Activity at Protein Kinase Assays (% of control), PAR-1Bα(h)” value (“Activity … (% of control), PAR-1Bα(h)” for short) on PAR-1Bα(h) is 101 % of control. In addition, the “Activity at Protein Kinase Assays (% of control), ROCK-II(h)” value (“Activity … (% of control), ROCK-II(h)” below) on ROCK-II(h) was 104 % of control. At SGK(h), the “Activity at Protein Kinase Assays (% of control), SGK(h)” value (shortened to “Activity … (% of control), SGK(h)”) was 93 % of control. Besides, the “Activity at Protein Kinase Assays (% of control), PKCα(h)” value (“Activity … (% of control), PKCα(h)” for short) on PKCα(h) is 83 % of control. The “Activity at Protein Kinase Assays (% of control), CDK3/cyclinE(h)” value (“Activity … (% of control), CDK3/cyclinE(h)” for short) at CDK3/cyclinE(h) is listed as 106 % of control. Further, the “Activity at Protein Kinase Assays (% of control), PKCε(h)” value (“Activity … (% of control), PKCε(h)” for short) on PKCε(h) was 97 % of control. The “Activity at Protein Kinase Assays (% of control), PKCι(h)” value (“Activity … (% of control), PKCι(h)” for short) on PKCι(h) is 90 % of control. The “Activity at Protein Kinase Assays (% of control), FGFR3(h)” value (“Activity … (% of control), FGFR3(h)” for short) at FGFR3(h) is on record as 117 % of control. Further, the “Activity at Protein Kinase Assays (% of control), BTK(h)” value (from here on “Activity … (% of control), BTK(h)”) at BTK(h) is 104 % of control. Moreover, the “Activity at Protein Kinase Assays (% of control), PRAK(h)” value (“Activity … (% of control), PRAK(h)” below) on PRAK(h) was 102 % of control.

Regarding `CN(C)c1nc2ccc1CCCCn1cc(c3ccccc31)C1=C(C(=O)NC1=O)c1cn(c3ccccc13)CCC2` [Cpd 1, 31-(dimethylamino)-5,15,25,32-tetraazaheptacyclo[28.2.2.1^5,12.1^18,25.0^6,11.0^13,17.0^19,24]hexatriaconta-1(32),6,8,10,12(36),13(17),18(35),19,21,23,30,33-dodecaene-14,16-dione], the “Activity … (% of control), PAR-1Bα(h)” value on PAR-1Bα(h) is on record as 94 % of control. The “Activity … (% of control), ROCK-II(h)” value at ROCK-II(h) is reported as 110 % of control. Moreover, at SGK(h), the “Activity … (% of control), SGK(h)” value was 93 % of control. On PKCα(h), the “Activity … (% of control), PKCα(h)” value is 68 % of control. For the same compound, the “Activity … (% of control), CDK3/cyclinE(h)” value on CDK3/cyclinE(h) is reported as 59 % of control. Besides, the “Activity … (% of control), PKCε(h)” value at PKCε(h) is listed as 72 % of control. The “Activity … (% of control), PKCι(h)” value at PKCι(h) is 104 % of control. Further, the “Activity … (% of control), FGFR3(h)” value at FGFR3(h) was 75 % of control. In addition, the “Activity … (% of control), BTK(h)” value on BTK(h) is reported as 105 % of control. Further, on PRAK(h), the “Activity … (% of control), PRAK(h)” value is 88 % of control.

For the compound `O=C1NC(=O)C2=C1c1cn(c3ccccc13)CCCc1cc(nc(N3CCCC3)c1)CCCn1cc2c2ccccc21` [Cpd 6, 20-pyrrolidin-1-yl-4,14,19,26-tetraazaheptacyclo[24.6.1.1^7,14.1^18,22.0^2,6.0^8,13.0^27,32]pentatriaconta-1(33),2(6),7(35),8,10,12,18(34),19,21,27,29,31-dodecaene-3,5-dione], the “Activity … (% of control), PAR-1Bα(h)” value on PAR-1Bα(h) is 96 % of control. In addition, on ROCK-II(h), the “Activity … (% of control), ROCK-II(h)” value is given as 107 % of control. For the same compound, the “Activity … (% of control), SGK(h)” value at SGK(h) was 109 % of control. Besides, on PKCα(h), the “Activity … (% of control), PKCα(h)” value is 82 % of control. The “Activity … (% of control), CDK3/cyclinE(h)” value at CDK3/cyclinE(h) is given as 86 % of control. At PKCε(h), the “Activity … (% of control), PKCε(h)” value is reported as 93 % of control. Besides, the “Activity … (% of control), PKCι(h)” value at PKCι(h) was 121 % of control. The “Activity … (% of control), FGFR3(h)” value on FGFR3(h) is on record as 114 % of control. In addition, at BTK(h), the “Activity … (% of control), BTK(h)” value is 106 % of control. In addition, the “Activity … (% of control), PRAK(h)” value at PRAK(h) is on record as 101 % of control.

In the case of `CN(C)c1cc2cc(n1)CCCn1cc(c3ccccc31)C1=C(C(=O)NC1=O)c1cn(c3ccccc13)CCC2` [Cpd 2, 20-(dimethylamino)-4,14,19,26-tetraazaheptacyclo[24.6.1.1^7,14.1^18,22.0^2,6.0^8,13.0^27,32]pentatriaconta-1(33),2(6),7(35),8,10,12,18(34),19,21,27,29,31-dodecaene-3,5-dione], the “Activity … (% of control), PAR-1Bα(h)” value at PAR-1Bα(h) is given as 100 % of control. The “Activity … (% of control), ROCK-II(h)” value on ROCK-II(h) is on record as 103 % of control. The “Activity … (% of control), SGK(h)” value at SGK(h) is listed as 105 % of control. Also, the “Activity … (% of control), PKCα(h)” value on PKCα(h) is recorded as 74 % of control. Besides, the “Activity … (% of control), CDK3/cyclinE(h)” value on CDK3/cyclinE(h) is 89 % of control. Moreover, on PKCε(h), the “Activity … (% of control), PKCε(h)” value is on record as 83 % of control. Also, the “Activity … (% of control), PKCι(h)” value at PKCι(h) was 117 % of control. Further, the “Activity … (% of control), FGFR3(h)” value on FGFR3(h) is 84 % of control. Also, the “Activity … (% of control), BTK(h)” value on BTK(h) is recorded as 106 % of control. Besides, the “Activity … (% of control), PRAK(h)” value on PRAK(h) is 96 % of control.
